Source: patent US4195172A
Converted amounts (≈) assume the structure as drawn. “And” between values parts separate entries of the source, which are not always exact repeats. Equal values may be shown once. Where a name gives a salt, the structure may show the parent alone. Read-outs that look alike come from different tables or passages of the source.

Columns and labels:
[1] = IC50 of products of the examples and original antibiotics; format: cell-based; settings: test organism not given
[2] = test system: Torula sp., Geotrichum candidum and Cryptococcus neoformans; test: In vitro antifungal activity in comparison with Fungizone (in words); format: cell-based
From the text: The in vitro activities of the N-methylglucamine salts of the N-glycosyl derivative of amphotericin B and Fungizone against some fungi are compared in Table 3.

[3] = Selective toxicity: hemolysis of human erythrocytes versus potassium ion effluence from Saccharomyces cerevisiae cells; format: cell-based; settings: human erythrocytes vs saccharomyces cerevisiae; 50% hemolysis of human erythrocytes / 50% potassium effluence from Saccharomyces cerevisiae cells; column head is drawing 2; read-out: Selective toxicity index EH50/DK50
From the text: (§1) The data representing the selective toxicity are also more advantageous for the N-methylglucamine salt of N-glycosyl derivatives of polyene macrolides than for Fungizone. The indices of selective toxicity EK50 /DK50 and EH50 /DK50, illustrating the ratio of the minimal antibiotic concentration causing 50% effluence of the potassium ions from erythrocytes of human blood/EK50 /and the minimal concentration of antibiotic causing 50% hemolysis of erythrocytes/EH50 /to the minimal antibiotic concentration causing 50% effluence of the potassium ions from Saccharomyces cerevisiae cells/DK50 /are compared in Table 6.

Candida tropicalis = test: Sensitivity of Candida tropicalis strains; format: cell-based
From the text: (§2) There is a different sensitivity of different strains, for example Candida sp. to the N-methylglucamine salt of the N-glycosyl derivative of amphotericin B and Fungizone. Statistically, the amount of to Fungizone insensitive strains is much higher than the amount of to N-methylglucaminesalt of the said derivative insensitive strains. This especially concerns Candida albicans strains ZM, HM, and 1/75, Candida tropicalis strains JD and 20/75 and Candida krusei strains TS and 16/75, which are insensitive to Fungizone, but sensitive to N-methylglucamine salt of N-glycosyl derivative of amphotericin B.

[4] = Acute toxicity on intravenous administration in mice; settings: mouse, in vivo, administered intravenously, read-out: DL50 (the source's name)
[5] = Presence of antibiotic in serum after intravenous administration to rats; format: in vivo
From the text: In intravenous administration to rats of N-methylglucamine salts of polyene macrolide N-glycosyl derivatives as compared to Fungizone the effect is much more advantageous for the N-methylglucamine salts because the presence of antibiotic in the serum after administration can be found longer that in the case of Fungizone/Table 5/.

Candida krusei = test: Sensitivity of Candida krusei strains; format: cell-based
From the text: as §2

Aspergillus fumigatus = test: Protection of mice in generalized aspergillosis; format: in vivo; settings: for ED50: read-out: Average protective DP50 doses, generalized aspergillosis
Description: (§3) Average protective DP50 doses
(§4) 24 hours in a case of genera-

Candida albicans [6] = test: Experimental chemotherapy of Candida albicans infected mice; format: in vivo; settings: Fungizone = 1
From the text: The relative activity index representing the antibiotic activity in experimental chemotherapy of Candida albicans infected mice is much more advantageous for the N-methylglucamine salts of the N-glycosyl derivatives of polyene macrolides than for Fungizone/Table 4/.

[7] = Stability on storage at different temperatures within 6 months (retained biological activity); settings: storage within 6 months, initial biological activity assumed as 100%, 262800 min
[8] = Selective toxicity: potassium ion effluence from human erythrocytes versus Saccharomyces cerevisiae cells; format: cell-based; settings: human erythrocytes vs saccharomyces cerevisiae; 50% effluence of potassium ions from human erythrocytes / from Saccharomyces cerevisiae cells; column head is drawing 1; read-out: Selective toxicity index EK50/DK50
From the text: as §1

Geotrichum candidum = test: Protection of mice in generalized geotrichosis; format: in vivo; settings: for in vivo activity compared with Fungizone (in words), geotrichosis: generalized geotrichosis caused by Geotrichum candidum; for ED50: read-out: Average protective DP50 doses, generalized geotrichosis
Description: as §3, §4

Candida albicans [9] = test: Sensitivity of Candida albicans strains; format: cell-based
From the text: as §2

[10] = Biological activity in U/mg; format: cell-based
pH of 1% water solution = format: physicochemical
[11] = prior art; cited from earlier work
[12] = aspergillosis caused by Aspergillus fumigatus

`C[C@@H]1[C@H](O)[C@@H](C)/C=C/C=C/C=C/C=C/C=C/C=C/C=C/[C@H](O[C@@H]2O[C@H](C)[C@@H](O)[C@H](NC3O[C@H](CO)[C@@H](O)[C@H](O)[C@H]3O)[C@@H]2O)C[C@@H]2O[C@](O)(C[C@@H](O)C[C@@H](O)[C@H](O)CC[C@@H](O)C[C@@H](O)CC(=O)O[C@H]1C)C[C@H](O)[C@H]2C(=O)O` (stereo partly drawn) [Example I, sodium salt of the N-glycosyl derivative of the amphotericin B] showed an IC50 [1] of 0.05 mg/L.
In the case of `C[C@@H]1[C@H](O)[C@@H](C)/C=C/C=C/C=C/C=C/C=C/C=C/C=C/[C@H](O[C@@H]2O[C@H](C)[C@@H](O)[C@H](NC3O[C@H](CO)[C@@H](O)[C@H](O)[C@H]3O)[C@@H]2O)C[C@@H]2O[C@](O)(C[C@@H](O)C[C@@H](O)[C@H](O)CC[C@@H](O)C[C@@H](O)CC(=O)O[C@H]1C)C[C@H](O)[C@H]2C(=O)O` (stereo partly drawn) [II, tris salt of the N-glycosyl derivative of amphotericin B], the IC50 [1] is reported as 0.6 mg/L.
With `C[C@@H]1[C@H](O)[C@@H](C)/C=C/C=C/C=C/C=C/C=C/C=C/C=C/[C@H](O[C@@H]2O[C@H](C)[C@@H](O)[C@H](NC3O[C@H](CO)[C@@H](O)[C@H](O)[C@H]3O)[C@@H]2O)C[C@@H]2O[C@](O)(C[C@@H](O)C[C@@H](O)[C@H](O)CC[C@@H](O)C[C@@H](O)CC(=O)O[C@H]1C)C[C@H](O)[C@H]2C(=O)O` (stereo partly drawn) [N-methylglucamine salt of N-glycosyl derivative of amphotericin B] the “antifungal activity in comparison with Fungizone (in words)” value [2] was “exhanced antifungal activity”, the selectivity ratio [3] was 24 and the sensitivity of strain (Candida tropicalis; Candida tropicalis strain 20/75) was “sensitive”. The sensitivity of strain (Candida tropicalis; Candida tropicalis strain JD) was “sensitive”, the LD50 [4] was 12.1 to 14.3 mg/kg and the remaining at 4380 h (physchem) was 81.2%. For the same compound, the “Time of the presence of an antibiotic in serum after 1/5 DL50 dose administration” value [5] was 15 min, the sensitivity of strain (Candida krusei; Candida krusei strain 16/75) was “sensitive” and the sensitivity of strain (Candida krusei; Candida krusei strain TS) was “sensitive”. For the same compound, the “in vivo activity compared with Fungizone (in words), aspergillosis” value (Aspergillus fumigatus; [12]) was “corresponds to activity of Fungizone”, the ED50 (Aspergillus fumigatus; mice, aspergillosis caused by Aspergillus fumigatus) was 22.7 mg/kg and the “Relative activity index in Candida albicans mice infection” value (Candida albicans [6]) was 2.35. The “Biological activity in % at +37° C.” value ([7]; +37° C.) was 77.0%, the “Biological activity in % at +50° C.” value ([7]; +50° C.) was 79.8% and the “Biological activity in % at RT” value ([7]; RT) was 83.1%. The selectivity ratio [8] was 1.37, the “in vivo activity compared with Fungizone (in words), geotrichosis” value (Geotrichum candidum) was “corresponds to activity of Fungizone” and the ED50 (Geotrichum candidum; mice, geotrichosis caused by Geotrichum candidum) was 17.9 mg/kg. For the same compound, the sensitivity of strain (Candida albicans [9]; Candida albicans strain 1/75) was “sensitive”, the sensitivity of strain (Candida albicans [9]; Candida albicans strain HM) was “sensitive” and the sensitivity of strain (Candida albicans [9]; Candida albicans strain ZM) was “sensitive”.
In the case of `C[C@@H]1[C@H](O)[C@@H](C)/C=C/C=C/CC/C=C/C=C/C=C/C=C/[C@H](O[C@@H]2O[C@H](C)[C@@H](O)[C@H](NC3O[C@H](CO)[C@@H](O)[C@H](O)[C@H]3O)[C@@H]2O)C[C@@H]2O[C@](O)(C[C@@H](O)[C@H](O)CC[C@@H](O)C[C@@H](O)C[C@@H](O)CC(=O)O[C@H]1C)C[C@H](O)[C@H]2C(=O)O` (stereo partly drawn) [N-methylglucamine salt of N-glycosyl derivative of nystatin] [listing 1 of 2 here], the selectivity ratio [3] is reported as 45, the LD50 [4] is reported as 19 mg/kg and the ED50 (Aspergillus fumigatus; Aspergillus fumigatus) is reported as 6.28 mg/kg. It also gave a selectivity ratio [8] of 17.3 and an ED50 (Geotrichum candidum; Geotrichum candidum) of 4.49 mg/kg.
In the case of `C[C@@H]1[C@H](O)[C@@H](C)/C=C/C=C/CC/C=C/C=C/C=C/C=C/[C@H](O[C@@H]2O[C@H](C)[C@@H](O)[C@H](NC3O[C@H](CO)[C@@H](O)[C@H](O)[C@H]3O)[C@@H]2O)C[C@@H]2O[C@](O)(C[C@@H](O)[C@H](O)CC[C@@H](O)C[C@@H](O)C[C@@H](O)CC(=O)O[C@H]1C)C[C@H](O)[C@H]2C(=O)O` (stereo partly drawn) [N-methylglucamine salt of N-glycosyl derivative of nystatin] [listing 2 of 2 here], the Biological activity [10] is reported as 1780 U/mg, the “Time of the presence of an antibiotic in serum after 1/5 DL50 dose administration” value [5] is reported as 30 min and the “in vivo activity compared with Fungizone (in words), aspergillosis” value (Aspergillus fumigatus; [12]) is reported as “higher activity than Fungizone”. The “Relative activity index in Candida albicans mice infection” value (Candida albicans [6]) was 2.41, the “pH 1% water solution” value (pH of 1% water solution) was 8.3 and the “in vivo activity compared with Fungizone (in words), geotrichosis” value (Geotrichum candidum) was “higher activity than Fungizone”. For the same compound, the Solubility in water (Solubility in water) was > 15%.
In the case of `C[C@@H]1[C@H](O)[C@@H](C)/C=C/C=C/CC/C=C/C=C/C=C/C=C/[C@H](O[C@@H]2O[C@H](C)[C@@H](O)[C@H](NC3O[C@H](CO)[C@@H](O)[C@H](O)[C@H]3O)[C@@H]2O)C[C@@H]2O[C@](O)(C[C@@H](O)[C@H](O)CC[C@@H](O)C[C@@H](O)C[C@@H](O)CC(=O)O[C@H]1C)C[C@H](O)[C@H]2C(=O)O` (stereo partly drawn) [Sodium salt of N-glycosyl derivative of nystatin] [reference compound], the Biological activity [10] is reported as 1296 U/mg, the “pH 1% water solution” value (pH of 1% water solution) is reported as 9.7 and the Solubility in water (Solubility in water) is reported as 4-10%.
Work on `C[C@@H]1[C@H](O)[C@@H](C)/C=C/C=C/CC/C=C/C=C/C=C/C=C/[C@H](O[C@@H]2O[C@H](C)[C@@H](O)[C@H](NC3O[C@H](CO)[C@@H](O)[C@H](O)[C@H]3O)[C@@H]2O)C[C@@H]2O[C@](O)(C[C@@H](O)[C@H](O)CC[C@@H](O)C[C@@H](O)C[C@@H](O)CC(=O)O[C@H]1C)C[C@H](O)[C@H]2C(=O)O` (stereo partly drawn) [VII, N-methylglucamine salt of the N-glycosyl derivative of nystatin] yielded an IC50 ([1]; read-out: IC50) of 0.45 mg/L.
`C[C@@H]1[C@H](O)[C@@H](C)/C=C/C=C/C=C/C=C/C=C/C=C/C=C/[C@H](O[C@@H]2O[C@H](C)[C@@H](O)[C@H](NC3O[C@H](CO)[C@@H](O)[C@H](O)[C@H]3O)[C@@H]2O)C[C@@H]2O[C@](O)(C[C@@H](O)C[C@@H](O)[C@H](O)CC[C@@H](O)C[C@@H](O)CC(=O)O[C@H]1C)C[C@H](O)[C@H]2C(=O)O` (stereo partly drawn) [VIII, N-methylglucamine salt of N-glycosyl derivative of amphotericin B] gave an IC50 [1] of 0.1 mg/L.
`C[C@@H]1[C@H](O)[C@@H](C)/C=C/C=C/CC/C=C/C=C/C=C/C=C/[C@H](O[C@@H]2O[C@H](C)[C@@H](O)[C@H](NC3O[C@H](CO)[C@H](O)[C@H](O)[C@H]3O)[C@@H]2O)C[C@@H]2O[C@](O)(C[C@@H](O)[C@H](O)CC[C@@H](O)C[C@@H](O)C[C@@H](O)CC(=O)O[C@H]1C)C[C@H](O)[C@H]2C(=O)O` (stereo partly drawn) [X, N-methylglucamine salt of N-glycosyl nystatin] showed an IC50 ([1]; read-out: IC50) of 0.45 mg/L.
With `C[C@@H]1[C@H](O)[C@@H](C)/C=C/C=C/CC/C=C/C=C/C=C/C=C/[C@H](O[C@@H]2O[C@H](C)[C@@H](O)[C@H](NC3O[C@H](CO)[C@@H](O[C@H]4O[C@H](CO)[C@@H](O)[C@H](O)[C@H]4O)[C@H](O)[C@H]3O)[C@@H]2O)C[C@@H]2O[C@](O)(C[C@@H](O)[C@H](O)CC[C@@H](O)C[C@@H](O)C[C@@H](O)CC(=O)O[C@H]1C)C[C@H](O)[C@H]2C(=O)O` (stereo partly drawn) [XI, N-methylglucamine salt of N-glycosyl nystatin] the IC50 ([1]; read-out: IC50) was 0.45 mg/L.
For `COC(=O)[C@H]1[C@@H]2C[C@@H](O[C@@H]3O[C@H](C)[C@@H](O)[C@H](N)[C@@H]3O)/C=C/C=C/C=C/C=C/C=C/C=C/C=C/[C@H](C)[C@@H](O)[C@@H](C)[C@H](C)OC(=O)C[C@H](O)C[C@H](O)CC[C@@H](O)[C@H](O)C[C@H](O)C[C@](O)(C[C@@H]1O)O2` [hydrochloride of methyl esters of amphotericin B], the “solubility in water (in words, from literature)” value [11] is given as “forms in water merely micelle”.
In the case of `C[C@@H]1[C@H](O)[C@@H](C)/C=C/C=C/CC/C=C/C=C/C=C/C=C/[C@H](O[C@@H]2O[C@H](C)[C@@H](O)[C@H](N)[C@@H]2O)C[C@@H]2O[C@](O)(C[C@@H](O)[C@H](O)CC[C@@H](O)C[C@@H](O)C[C@@H](O)CC(=O)O[C@H]1C)C[C@H](O)[C@H]2C(=O)O` [nystatin, reference compound], the IC50 ([1]; read-out: IC50) is reported as 0.18 mg/L (≈ 0.194 µM).
In the case of polifungin [reference compound], the IC50 [1] is reported as 0.15 mg/L and 0.16 mg/L.
